Laboratory results as given in patent US20110046127A1, “Imidazopyridazines for Use as Protein Kinase Inhibitors” (priority 2007, published 2011).

tested on: T1, PIM-1 or PIM-2; test: PIM-1 / PIM-2 biochemical assay (ADP Hunter assay kit); set-up: species or system human; conditions: tested in either the PIM-1 or the PIM-2 biochemical assay (as appropriate); ATP 100 μM
T1 construct: fused on or other part: C-terminal histidine tag (PIM-1 enzyme); N-terminal histidine tag (PIM-2 enzyme)
From the text: The biochemical assay to measure PIM-1 activity relies on the ADP Hunter assay kit (DiscoveRx Corp., Cat. # 90-0077), that determines the amount of ADP as direct product of the kinase enzyme activity.
The enzyme has been expressed and purified in-house as a recombinant human protein with a C-terminal histidine tag. The protein is active and stable.
(§1) Assay conditions were as indicated by the kit manufacturers with the following adaptations for the kinase activity step: • Kinase assay buffer and assay volume stay as recommended (15 mM HEPES, pH 7.4, 20 mM NaCl, 1 mM EGTA, 0.02% Tween 20, 10 mM MgCl2 and 0.1 mg/ml bovine γ-globulins/75 μl assay volume) • Incubation time and temperature: 60 min at 30° C. • PIM-1 concentration: 50 pg/μl • ATP concentration: 100 μM • PIM-1 substrate peptide: PIMtide (ARKRRRHPSGPPTA) • Peptide concentration: 60 μM • Positive control for kinase activity inhibition: 1-10 μM Staurosporine • DMSO concentration have to stay below 2% during the kinase reaction
Assays were performed in either 96 or 384-well plates. The final outcome of the coupled reactions provided by the kit is the release of the fluorescent product Resorufin and has been measured with a multilabel HTS counter VICTOR V (PerkinElmer) using an excitation filter at 544 nm and an emission filter at 580 nm.
The biochemical assay to measure PIM-2 activity relies on the ADP Hunter assay kit (DiscoveRx Corp., Cat. # 90-0077), that determines the amount of ADP as direct product of the kinase enzyme activity.
The enzyme has been expressed and purified in-house as a recombinant human protein with a N-terminal histidine tag. The protein is active and stable.
as §1, with “mg/ml bovine γ-globulins/20 μl assay” for “mg/ml bovine γ-globulins/75 μl assay”, “and temperature: 30 min at” for “and temperature: 60 min at”, “C. • PIM-2 concentration: 350” for “C. • PIM-1 concentration: 50”, “PIM-2 concentration: 350 pg/μl •” for “PIM-1 concentration: 50 pg/μl •”, “Peptide concentration: 100 μM •” for “Peptide concentration: 60 μM •”

Row | IC50 | SMILES
1 | 130 nM | O=C(Nc1cccnc1)c1cnc2ccc(NCc3ccc(Cl)c(Cl)c3)nn12 [Example 23, 6-(3,4-Dichloro-benzylamino)-imidazo[1,2-b]pyridazine-3-carboxylic acid pyridin-3-yl-amide]
2 | 60 nM | O=C(Nc1ccccc1)c1cnc2ccc(NCc3ccc(Cl)c(Cl)c3)nn12 [Example 18, 6-(3,4-Dichloro-benzylamino)-imidazo[1,2-b]pyridazine-3-carboxylic acid phenyl-amide]
3 | 70 nM | Cc1cc(NCc2ccc(Cl)c(Cl)c2)nn2c(C(=O)Nc3ccccc3)cnc12 [Example 54, 6-(3,4-Dichloro-benzylamino)-8-methyl-imidazo[1,2-b]pyridazine-3-carboxylic acid phenylamide]
4 | 1150 nM | O=C(Nc1cnc2ccc(NCc3ccc(F)cc3)nn12)c1ccccc1 [Example 90, N-[6-(4-Fluoro-benzylamino)-imidazo[1,2-b]pyridazin-3-yl]-benzamide]
5 | 2850 nM | Clc1ccc(CNc2ccc3ncc(C#CCc4ccccc4)n3n2)cc1Cl [Example 73, N-(3,4-dichlorobenzyl)-3-(3-phenylprop-1-ynyl)imidazo[1,2-b]pyridazin-6-amine]
6 | 2250 nM | O=C(Nc1cnc2ccc(NCc3ccc(F)cc3)nn12)c1cccc(O)c1 [Example 102, N-[6-(4-Fluoro-benzylamino)-imidazo[1,2-b]pyridazin-3-yl]-3-hydroxy-benzamide]
7 | 260 nM | O=C(O)c1ccc(NC(=O)c2cnc3ccc(NCc4ccc(Cl)c(Cl)c4)nn23)cc1 [Example 29, 4-{[6-(3,4-Dichloro-benzylamino)-imidazo[1,2-b]pyridazine-3-carbonyl]-amino}-benzoic acid]

The remaining lines, values behind:

Row | SMILES | IC50
8 | COc1ccc(-c2ccc3ncc(C(=O)Nc4ccccc4)n3n2)cc1 [Example 46, 6-(4-Methoxy-phenyl)-imidazo[1,2-b]pyridazine-3-carboxylic acid phenyl-amide] | 380 nM
9 | CCS(=O)(=O)Nc1cnc2ccc(-c3ccccc3)nn12 [Example 85, Ethanesulfonic acid (6-phenyl-imidazo[1,2-b]pyridazin-3-yl)-amide] | 17400 nM
10 | CNC(=O)c1cccc(NC(=O)c2cnc3c(C)cc(NCc4ccc(OC)cc4)nn23)c1 [Example 66, 6-(4-Methoxy-benzylamino)-8-methyl-imidazo[1,2-b]pyridazine-3-carboxylic acid (3-methylcarbamoyl-phenyl)-amide] | 3130 nM
11 | O=C(Nc1ccccc1)c1cnc2ccc(OCc3ccccc3)nn12 [Example 34, 6-Benzyloxy-imidazo[1,2-b]pyridazine-3-carboxylic acid phenylamide] | 11000 nM
12 | Cc1cc2ncc(C(=O)Nc3ccccc3)n2nc1NCc1ccco1 [Example 58, 6-[(Furan-2-ylmethyl)-amino]-7-methyl-imidazo[1,2-b]pyridazine-3-carboxylic acid phenylamide] | 300 nM
13 | Cc1nc2ccc(NCc3ccc(F)cc3)nn2c1C(=O)Nc1ccccc1 [Example 80, 6-(4-Fluoro-benzylamino)-2-methyl-imidazo[1,2-b]pyridazine-3-carboxylic acid phenylamide] | 4550 nM
14 | O=C(Nc1ccccc1)c1cnc2ccc(-n3ccnc3)nn12 [Example 38, 6-Imidazol-1-yl-imidazo[1,2-b]pyridazine-3-carboxylic acid phenylamide] | 4630 nM
15 | O=C(Nc1cnc2ccc(Oc3ccccc3)nn12)c1ccccc1 [Example 98, N-(6-Phenoxy-imidazo[1,2-b]pyridazin-3-yl)-benzamide] | 4650 nM
